# In US20110171144A1, “Functional Micelles for Hard Tissue Targeted Delivery of Chemicals” (priority 2008, published 2011):
# Key:
# [1] = Binding potential and rate of bone-targeting micelles on hydroxyapatite (HA)
# Description: The solvent was evaporated in vacuum to yield a polymeric film on the wall of the flask. The thin polymeric film formed was then hydrated with a 10 mM phosphate buffered saline solution (PBS, pH 7.4) at 50° C. to set the micelles. The micelles were prepared as the method mentioned above for bone-targeting micelles: 0.9% […], 0.1% ALN-[…], 0.02% RB-[…]; for controls: 1% […], 0.02% RB-[…]). […] The mixtures were allowed to be gently agitated for 1, 5, 10, or 30 minutes at room temperature. […] The spectra of the supernatant was recorded on a UV-Visible spectrophotometer and compared with that of the initial micelle solution. Micelle containing RB-[…] but no ALN-[…] and RB were used as controls in this experiment.
# S. Mutans UA159 = test: In vitro inhibition of S. Mutans biofilm growth on HA discs; assay type: cell-based, Streptococcus Mutans; conditions: 48 hours incubation, compared to controls, FIG. 3
# Description: S. Mutans UA159 was used in this study. S. Mutans were stored frozen at −80° C. A fresh culture was prepared before each experiment. A single colony of S. Mutans was inoculated into 3 mL of THYE (Todd-Hewitt Yeast Extract) medium and allow to growth statically overnight at 37° C. with 5% CO2. The overnight culture was diluted to a density of 5×10^4 CFU/ml with chemically defined biofilm media (CDM) (Biswas et al. (2007) J. Bacteriol., 189:6521-6531).
# Autoclaved HA discs (7 mm×1.8 mm) were incubated with different micelle solutions, a farnesol solution in ethanol, or CDM in a 24-well plate for 1 hour to achieve maximum loading. The discs were then removed from the wells and vortex washed twice with saline for 10 seconds. The discs were subsequently washed with culture media to remove unbounded micelle. For the farnesol ethanol solution group, discs were washed twice with ethanol and then washed with saline. The HA discs were then transferred to 1 mL of diluted S. Mutans, and cultured statically for 48 hours to allow biofilm growth at 37° C. with 5% CO2.
# On day three post bacteria inoculation, the HA discs were dip-washed 3 times with THYE media to remove loosely attached bacteria and then placed in 1 mL of THYE media. The surfaces of HA discs were gently scraped with a sterile spatula to harvest adherent cells. […]
# [2] = Hornby et al. (2001); cited from earlier work
compound,measurement,setting,value
"CCN(CC)c1ccc2c(-c3ccccc3C(=O)O)c3ccc(=[N+](CC)CC)cc-3oc2c1.[Cl-] [RB, Rhodamine B]",binding to HA (in words),"[1]; 30 minutes incubation, FIG. 4A",slightly bound
Pluronic® 123-alendronate conjugate [ALN-P123],bound to HA,"[1]; 10 minutes incubation, FIG. 4B",45%
same,bound to HA (ultimate binding equilibrium),[1]; 30 minutes incubation,55%
"CC(C)=CCCC(C)=CCCC(C)=CCO [farnesol, 3,7,11-trimethyl-2,6,10-dodecatrien-1-ol]",inhibition of S. Mutans biofilm formation on HA discs,S. Mutans UA159,did not show inhibition
same,water solubility,[2],1200 µM
